Laboratory results from US8501689B2, “Growth factor-mimicking peptides and uses thereof” (Caragen Co., Ltd., priority 2008, dated 2013).
Where no end group is shown, it is not given here.

Key:
Type in all cases: cell-based
[1] = test system: procollagen; experiment: Procollagen ELISA in HaCaT keratinocytes; settings: HaCaT incubated with peptides for 72 hr, FIG. 5a
Procedure: (§1) HaCaT keratinocytes cultured for 48 hr were incubated with the peptides of the present invention for 72 hr. The levels of procollagen and fibronectin, indicators to show the improvement in skin wrinkle, were examined. The quantification was performed using Procollagen ELISA kit (Takara, Japan) and Fibronectin ELISA kit (CHEMICON, USA).

[2] = test system: NIH3T3 fibroblasts; experiment: SRB colorimetric assay, growth of NIH3T3 fibroblasts; settings: NIH3T3, 10 ng/ml or 1,000 ng/ml, 72 hr, serum-free medium, absorbance at 590 nm, FIG. 3b
Procedure: (§2) In order to evaluate four peptides prepared in Preparation Examples 1-2 whether they have similar activities of growth factor-1, SRB (Sulforhodamine B; Sigma-Aldrich) colorimetric assay was carried out using HaCaT keratinocytes and NIH3T3 fibroblasts according to Rizzino et al. method (Rizzino, et al. Cancer Res., 48: 4266 (1988)).
HaCaT keratinocytes (The Korean Cell Line Bank) and NIH3T3 fibroblasts (The Korean Cell Line Bank) were cultured in 250 ml-flasks containing EMEM (Eagle's minimal essential media; Gibco, U.S.A.) supplemented with 10% FBS (fetal bovine serum). Cells cultured were treated with 0.25% trypsin solution to detach cells from the bottom of culture flasks and centrifuged to collect cell pellets. After cells were resuspended in EMEM not containing FBS, its aliquot (4×10^3 cells)was added to each well of 96-well plates and cultured under 7% CO2 for 24 hr at 37° C. After 24-hr culture, the medium was changed with a fresh medium not containing serum and cells were incubated with human aFGF (NIBSC, UK) or four peptides synthesized (10 ng/ml or 1,000 ng/ml) dissolved in water and 10% DMSO for 72 hr under the same conditions as described above. After removing supernatants, cells were washed once using PBS (phosphate buffered saline) and incubated with SRB solution. […] In addition, absorbance at 590 nm was measured to analyze cell proliferation. […]

[3] = test system: HaCaT keratinocytes; experiment: SRB colorimetric assay, growth of HaCaT keratinocytes; settings: 10 ng/ml or 1,000 ng/ml, 72 hr, serum-free medium, absorbance at 590 nm, FIG. 3a
Procedure: as §2
HaCaT keratinocytes (The Korean Cell Line Bank) and NIH3T3 fibroblasts (The Korean Cell Line Bank) were cultured in 250 ml-flasks containing EMEM (Eagle's minimal essential media; Gibco, U.S.A.) supplemented with 10% FBS (fetal bovine serum). Cells cultured were treated with 0.25% trypsin solution to detach cells from the bottom of culture flasks and centrifuged to collect cell pellets. After cells were resuspended in EMEM not containing FBS, its aliquot (4×10^3 cells)was added to each well of 96-well plates and cultured under 7% CO2 for 24 hr at 37° C. After 24-hr culture, the medium was changed with a fresh medium not containing serum and cells were incubated with human aFGF (NIBSC, UK) or four peptides synthesized (10 ng/ml or 1,000 ng/ml) dissolved in water and 10% DMSO for 72 hr under the same conditions as described above. After removing supernatants, cells were washed once using PBS (phosphate buffered saline) and incubated with SRB solution. Cells were sufficiently washed with PBS and observed under a microscope to find cell viability. In addition, absorbance at 590 nm was measured to analyze cell proliferation.
FIG. 3a and FIG. 3b represent the analysis data for growth of keratinocytes and fibroblasts, respectively. FIG. 4 represents the growth pattern of keratinocytes and fibroblasts observed under microscope after 72 hr-treatment with peptides.

[4] = test system: fibronectin; experiment: Fibronectin ELISA in HaCaT keratinocytes; settings: HaCaT incubated with peptides for 72 hr, FIG. 5b
Procedure: as §1

Row | Substance | level of procollagen in keratinocytes [1] | growth of fibroblasts [2] | growth of keratinocytes [3] | level of fibronectin in keratinocytes [4]
1 | YISKKHAGKNWF [corresponds to amino acids 111-122 of aFGF] | remarkably promote the production of procollagen | excellent effects on growth of fibroblasts | – | –
2 | DSHTQYCFHGT [compound 3, corresponds to amino acids 10-20 of TGF-α] | – | – | much better effects on growth of keratinocytes | –
3 | GYVGVRCEAADLDA [compound 4, corresponds to amino acids 38-49 of TGF-α] | – | – | much better effects on growth of keratinocytes | strikingly facilitate the production of procollagen
4 | Ac-YKSKKGGWTH [peptide 1] | – | excellent effects on growth of fibroblasts | much better effects on growth of keratinocytes | strikingly facilitate the production of procollagen
